± gives the expanded uncertainty stated by the source.
Key:
[1] = Molar enthalpy of transition or fusion; settings: Crystal; DSC
[2] = Crystal; DTA

Molar enthalpy of transition or fusion [1] | Normal melting temperature [2] | Structure (SMILES)
12.6 ± 0.55 kcal/mol | 62.00 ± 0.53 °C | CCCCCCCCCCCCCCCC(=O)O [hexadecanoic acid]
14.7 ± 0.645 kcal/mol | 27.80 ± 0.53 °C | CCCCCCCCCCCCCCCCCC [octadecane]
10.7 ± 0.478 kcal/mol | 54.00 ± 0.53 °C | CCCCCCCCCCCCCC(=O)O [tetradecanoic acid]
